Source: US20020026053A1, “Novel 3-(substituted) -2- indolinones compounds and use thereof as inhibitors of protein kinase activity” (priority 1997, published 2002)

Test system: FLK-1 receptor
Experiment: FLK-1 Assay (cellular/catalytic ELISA, VEGF-stimulated phosphotyrosine)
Type: cell-based
Design: concentration or dose not given beside the values
Details: protocol P.110
How it was run: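 Receptor phosphotyrosine ELISA: Flk-1-expressing NIH3T3 C7#3 cells, starved overnight in 0.1% FBS medium, received compound (1:200 final dilution, 0.5% DMSO) for 2 h at 37 °C, then VEGF. Anti-FLK-1-captured receptor was probed with anti-phosphotyrosine UB40 and peroxidase/ABTS read-out, relative to cells without compound.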

| Compound | Flk Kinase % Inhibition (P.110) |
| --- | --- |
| COC1CCCN1C=C1C(=O)Nc2c(Br)cc(Br)cc21 (racemic) [10740/A04] | 1.3% |
| COC1CCCN1C=C1C(=O)Nc2ccc(I)cc21 (racemic) [10740/B04] | −0.3% |
| Cc1c(Br)cc(Br)c2c1C(=Cc1ccc(CO)o1)C(=O)N2 [10739/H11] | −7.6% |
| O=C1Nc2c(Br)cc(Br)cc2C1=Cc1cnc2ccccc2c1 [10740/A02] | 5.7% |
| O=C1Nc2c(Br)cc(Br)cc2C1=Cc1ccnc2ccccc12 [10740/A03] | 4.2% |
| O=C1Nc2c(Br)cc(Br)cc2C1=Cc1ccsc1 [10740/A05] | −13.1% |
| O=C1Nc2c(Br)cc(Br)cc2C1=Cc1ccc2ccccc2n1 [10740/A06] | −8.7% |
| Cn1cc(C=C2C(=O)Nc3c(Br)cc(Br)cc32)c2ccccc21 [10740/A07] | −18.3% |
| Cc1[nH]c2ccccc2c1C=C1C(=O)Nc2c(Br)cc(Br)cc21 [10740/A08] | −18.3% |
| O=C1Nc2c(Br)cc(Br)cc2C1=Cc1cc(Br)cs1 [10740/A10] | −7.7% |
| CCCCOc1ccc(C=C2C(=O)Nc3c(Br)cc(Br)cc32)cc1 [10740/A11] | −3.5% |
| O=C1Nc2ccc(I)cc2C1=Cc1cnc2ccccc2c1 [10740/B02] | −17.0% |
| O=C1Nc2ccc(I)cc2C1=Cc1ccnc2ccccc12 [10740/B03] | −9.3% |
| O=C1Nc2ccc(I)cc2C1=Cc1ccsc1 [10740/B05] | −11.6% |
| O=C1Nc2ccc(I)cc2C1=Cc1ccc2ccccc2n1 [10740/B06] | −5.9% |
| Cn1cc(C=C2C(=O)Nc3ccc(I)cc32)c2ccccc21 [10740/B07] | −8.5% |
| Cc1[nH]c2ccccc2c1C=C1C(=O)Nc2ccc(I)cc21 [10740/B08] | 6.6% |
| O=C1Nc2ccc(I)cc2C1=Cc1cc(Br)cs1 [10740/B10] | 11.8% |
| CCCCOc1ccc(C=C2C(=O)Nc3ccc(I)cc32)cc1 [10740/B11] | 0.7% |
| Cc1c(Br)ccc2c1C(=Cc1cnc3ccccc3c1)C(=O)N2 [10740/C02] | −5.9% |
| Cc1c(Br)ccc2c1C(=Cc1ccnc3ccccc13)C(=O)N2 [10740/C03] | −129.3% |
| COC1CCCN1C=C1C(=O)Nc2ccc(Br)c(C)c21 (stereo not shown) [10740/C04] | −3.4% |
| Cc1c(Br)ccc2c1C(=Cc1ccsc1)C(=O)N2 [10740/C05] | −19.1% |
| Cc1c(Br)ccc2c1C(=Cc1ccc3ccccc3n1)C(=O)N2 [10740/C06] | −19.1% |
| Cc1c(Br)ccc2c1C(=Cc1cn(C)c3ccccc13)C(=O)N2 [10740/C07] | 1.1% |

| Compound | Flk Kinase % Inhibition (P.110) |
| --- | --- |
| Cc1[nH]c2ccccc2c1C=C1C(=O)Nc2ccc(Br)c(C)c21 [10740/C08] | 4.6% |
| Cc1c(Br)ccc2c1C(=Cc1cc(Br)cs1)C(=O)N2 [10740/C10] | 0.8% |
| CCCCOc1ccc(C=C2C(=O)Nc3ccc(Br)c(C)c32)cc1 [10740/C11] | 6.9% |
| CNS(=O)(=O)c1ccc2c(c1)C(=Cc1cnc3ccccc3c1)C(=O)N2 [10740/D02] | 4.1% |
| CNS(=O)(=O)c1ccc2c(c1)C(=Cc1ccnc3ccccc13)C(=O)N2 [10740/D03] | 15.1% |
| CNS(=O)(=O)c1ccc2c(c1)C(=CN1CCCC1OC)C(=O)N2 (stereo not shown) [10740/D04] | −2.0% |
| CNS(=O)(=O)c1ccc2c(c1)C(=Cc1ccsc1)C(=O)N2 [10740/D05] | −6.3% |
| CNS(=O)(=O)c1ccc2c(c1)C(=Cc1ccc3ccccc3n1)C(=O)N2 [10740/D06] | 9.6% |
| CNS(=O)(=O)c1ccc2c(c1)C(=Cc1cn(C)c3ccccc13)C(=O)N2 [10740/D07] | −4.5% |
| CNS(=O)(=O)c1ccc2c(c1)C(=Cc1c(C)[nH]c3ccccc13)C(=O)N2 [10740/D08] | −6.4% |
| CNS(=O)(=O)c1ccc2c(c1)C(=Cc1cc(Br)cs1)C(=O)N2 [10740/D10] | 1.5% |
| CCCCOc1ccc(C=C2C(=O)Nc3ccc(S(=O)(=O)NC)cc32)cc1 [10740/D11] | 3.0% |
| O=C1Nc2ccc(S(=O)(=O)Nc3ccc(C(F)(F)F)cc3)cc2C1=Cc1cnc2ccccc2c1 [10740/E02] | 9.6% |
| O=C1Nc2ccc(S(=O)(=O)Nc3ccc(C(F)(F)F)cc3)cc2C1=Cc1ccnc2ccccc12 [10740/E03] | 0.2% |
| COC1CCCN1C=C1C(=O)Nc2ccc(S(=O)(=O)Nc3ccc(C(F)(F)F)cc3)cc21 (stereo not shown) [10740/E04] | 2.0% |
| O=C1Nc2ccc(S(=O)(=O)Nc3ccc(C(F)(F)F)cc3)cc2C1=Cc1ccsc1 [10740/E05] | 28.7% |
| O=C1Nc2ccc(S(=O)(=O)Nc3ccc(C(F)(F)F)cc3)cc2C1=Cc1ccc2ccccc2n1 [10740/E06] | −8.4% |
| Cn1cc(C=C2C(=O)Nc3ccc(S(=O)(=O)Nc4ccc(C(F)(F)F)cc4)cc32)c2ccccc21 [10740/E07] | 34.4% |
| Cc1[nH]c2ccccc2c1C=C1C(=O)Nc2ccc(S(=O)(=O)Nc3ccc(C(F)(F)F)cc3)cc21 [10740/E08] | 39.1% |
| O=C1Nc2ccc(S(=O)(=O)Nc3ccc(C(F)(F)F)cc3)cc2C1=Cc1cc(Br)cs1 [10740/E10] | 11.8% |
| CCCCOc1ccc(C=C2C(=O)Nc3ccc(S(=O)(=O)Nc4ccc(C(F)(F)F)cc4)cc32)cc1 [10740/E11] | 17.1% |
| O=C1Nc2ccc(S(=O)(=O)N3CCOCC3)cc2C1=Cc1cnc2ccccc2c1 [10740/F02] | 2.8% |
| O=C1Nc2ccc(S(=O)(=O)N3CCOCC3)cc2C1=Cc1ccnc2ccccc12 [10740/F03] | −0.9% |
| COC1CCCN1C=C1C(=O)Nc2ccc(S(=O)(=O)N3CCOCC3)cc21 (stereo not shown) [10740/F04] | 6.8% |
| O=C1Nc2ccc(S(=O)(=O)N3CCOCC3)cc2C1=Cc1ccsc1 [10740/F05] | −13.5% |

| Compound | Flk Kinase % Inhibition (P.110) |
| --- | --- |
| O=C1Nc2ccc(S(=O)(=O)N3CCOCC3)cc2C1=Cc1ccc2ccccc2n1 [10740/F06] | 1.3% |
| Cn1cc(C=C2C(=O)Nc3ccc(S(=O)(=O)N4CCOCC4)cc32)c2ccccc21 [10740/F07] | −6.3% |
| Cc1[nH]c2ccccc2c1C=C1C(=O)Nc2ccc(S(=O)(=O)N3CCOCC3)cc21 [10740/F08] | −5.0% |
| O=C1Nc2ccc(S(=O)(=O)N3CCOCC3)cc2C1=Cc1cc(Br)cs1 [10740/F10] | 10.0% |
| CCCCOc1ccc(C=C2C(=O)Nc3ccc(S(=O)(=O)N4CCOCC4)cc32)cc1 [10740/F11] | 8.2% |
| O=C1Nc2ccc(CCCl)cc2C1=Cc1cnc2ccccc2c1 [10740/G02] | −2.6% |
| O=C1Nc2ccc(CCCl)cc2C1=Cc1ccnc2ccccc12 [10740/G03] | −2.0% |
| COC1CCCN1C=C1C(=O)Nc2ccc(CCCl)cc21 (stereo not shown) [10740/G04] | −5.1% |
| O=C1Nc2ccc(CCCl)cc2C1=Cc1ccsc1 [10740/G05] | −18.6% |
| O=C1Nc2ccc(CCCl)cc2C1=Cc1ccc2ccccc2n1 [10740/G06] | −19.3% |
| Cn1cc(C=C2C(=O)Nc3ccc(CCCl)cc32)c2ccccc21 [10740/G07] | 0.4% |
| Cc1[nH]c2ccccc2c1C=C1C(=O)Nc2ccc(CCCl)cc21 [10740/G08] | −0.5% |
| O=C1Nc2ccc(CCCl)cc2C1=Cc1cc(Br)cs1 [10740/G10] | −2.8% |
| CCCCOc1ccc(C=C2C(=O)Nc3ccc(CCCl)cc32)cc1 [10740/G11] | 3.3% |
| Cc1c(Br)cc(Br)c2c1C(=Cc1cnc3ccccc3c1)C(=O)N2 [10740/H02] | −3.7% |
| Cc1c(Br)cc(Br)c2c1C(=Cc1ccnc3ccccc13)C(=O)N2 [10740/H03] | −9.7% |
| COC1CCCN1C=C1C(=O)Nc2c(Br)cc(Br)c(C)c21 (stereo not shown) [10740/H04] | 6.0% |
| Cc1c(Br)cc(Br)c2c1C(=Cc1ccsc1)C(=O)N2 [10740/H05] | 5.8% |
| Cc1c(Br)cc(Br)c2c1C(=Cc1ccc3ccccc3n1)C(=O)N2 [10740/H06] | 3.2% |
| Cc1c(Br)cc(Br)c2c1C(=Cc1cn(C)c3ccccc13)C(=O)N2 [10740/H07] | 10.1% |
| Cc1[nH]c2ccccc2c1C=C1C(=O)Nc2c(Br)cc(Br)c(C)c21 [10740/H08] | 11.5% |
| Cc1c(Br)cc(Br)c2c1C(=Cc1cc(Br)cs1)C(=O)N2 [10740/H10] | 0.4% |
| CCCCOc1ccc(C=C2C(=O)Nc3c(Br)cc(Br)c(C)c32)cc1 [10740/H11] | 7.4% |
